Source: PubChem BioAssay (NCI)
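Cells were grown in 96-well plates and exposed to each compound for 48 hours at five concentrations; endpoints were interpolated linearly between bracketing concentrations, or set to the highest concentration if not reached. TGI denotes the concentration required for complete inhibition of growth.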 Where a SMILES comes first, the peptide text is derived from it. [ ]: non-standard residue; d: D form. The star is where a group is joined. Phe(4-NO2) = N[CH](Cc1ccc([N+](=O)[O-])cc1)C(=O)O; Cbz = O=C(OCc1ccccc1)*

Tests used:
Experiment in all cases: growth of human tumour cells (NCI), 48 h
BT-549 breast = system: BT-549 breast
EKVX NSCLC = system: EKVX NSCLC
HT29 colon = system: HT29 colon
IGROV1 ovarian = system: IGROV1 ovarian
KM12 colon = system: KM12 colon
MDA-MB-231 breast = system: MDA-MB-231 breast
OVCAR-3 ovarian = system: OVCAR-3 ovarian
OVCAR-8 ovarian = system: OVCAR-8 ovarian
RPMI-8226 leukemia = system: RPMI-8226 leukemia
SK-MEL-28 melanoma = system: SK-MEL-28 melanoma
SNB-19 CNS = system: SNB-19 CNS
SW-620 colon = system: SW-620 colon
U251 CNS = system: U251 CNS
LOX IMVI melanoma = system: LOX IMVI melanoma
UO-31 renal = system: UO-31 renal

COC(=O)c1c(C)c2c(c(C)c1O)OC(=O)c1c(C)cc(O)c(C=O)c1O2 gave a TGI (BT-549 breast) greater than 100 µM, a TGI (EKVX NSCLC) greater than 100 µM and a TGI (HT29 colon) greater than 100 µM. The TGI (IGROV1 ovarian) was greater than 100 µM, the TGI (KM12 colon) was greater than 100 µM and the TGI (MDA-MB-231 breast) was greater than 100 µM. It also gave a TGI (OVCAR-3 ovarian) greater than 100 µM, a TGI (OVCAR-8 ovarian) greater than 100 µM and a TGI (RPMI-8226 leukemia) greater than 100 µM. For the same compound, the TGI (SK-MEL-28 melanoma) was greater than 100 µM, the TGI (SNB-19 CNS) was greater than 100 µM and the TGI (SW-620 colon) was greater than 100 µM. The TGI (U251 CNS) was greater than 100 µM.
COc1ccc2c(c1)C1Oc3ccccc3CC1CO2 (stereo unspecified) gave a TGI (BT-549 breast) greater than 100 µM, a TGI (EKVX NSCLC) greater than 100 µM and a TGI (HT29 colon) greater than 100 µM. It also gave a TGI (IGROV1 ovarian) greater than 100 µM, a TGI (KM12 colon) greater than 100 µM and a TGI (LOX IMVI melanoma) greater than 100 µM. For the same compound, the TGI (MDA-MB-231 breast) was greater than 100 µM, the TGI (OVCAR-3 ovarian) was greater than 100 µM and the TGI (OVCAR-8 ovarian) was greater than 100 µM. It also gave a TGI (RPMI-8226 leukemia) of 65.4 µM, a TGI (SNB-19 CNS) greater than 100 µM and a TGI (SW-620 colon) greater than 100 µM. The TGI (U251 CNS) was greater than 100 µM and the TGI (UO-31 renal) was 75.8 µM.
For CC1=CC(=O)c2ccc3c4ccccc4n(C)c3c2C1=O, the TGI (BT-549 breast) was greater than 100 µM, the TGI (EKVX NSCLC) was greater than 62.7 µM and the TGI (HT29 colon) was greater than 31.6 µM. It also gave a TGI (IGROV1 ovarian) greater than 100 µM, a TGI (KM12 colon) greater than 100 µM and a TGI (MDA-MB-231 breast) greater than 100 µM. It also gave a TGI (OVCAR-3 ovarian) greater than 100 µM, a TGI (OVCAR-8 ovarian) greater than 100 µM and a TGI (RPMI-8226 leukemia) greater than 100 µM. The TGI (SK-MEL-28 melanoma) was greater than 100 µM, the TGI (SNB-19 CNS) was greater than 100 µM and the TGI (SW-620 colon) was greater than 100 µM. For the same compound, the TGI (U251 CNS) was greater than 100 µM and the TGI (UO-31 renal) was greater than 100 µM.
CN(C)/C=N/S(=O)(=O)c1nn2c(C=O)c(-c3ccc(-c4ccccc4)cc3)nc2s1 showed a TGI (BT-549 breast) of 3.05 µM, a TGI (EKVX NSCLC) of 19.8 µM and a TGI (HT29 colon) of 1.49 µM. The TGI (IGROV1 ovarian) was 2.59 µM, the TGI (KM12 colon) was 7.36 µM and the TGI (LOX IMVI melanoma) was 2.76 µM. It also gave a TGI (MDA-MB-231 breast) of 7.35 µM, a TGI (OVCAR-3 ovarian) of 3.73 µM and a TGI (RPMI-8226 leukemia) of 3 µM. For the same compound, the TGI (SK-MEL-28 melanoma) was 4.33 µM, the TGI (SNB-19 CNS) was 25.5 µM and the TGI (SW-620 colon) was greater than 26.9 µM. For the same compound, the TGI (U251 CNS) was 3.17 µM and the TGI (UO-31 renal) was 2.73 µM.
Compound COP(=O)(OC)[C@@](O)(c1ccccc1)[C@@H](O)[C@@H](O)c1ccccc1 has a TGI (BT-549 breast) greater than 100 µM, a TGI (EKVX NSCLC) greater than 100 µM and a TGI (HT29 colon) greater than 100 µM. For the same compound, the TGI (IGROV1 ovarian) was greater than 100 µM, the TGI (KM12 colon) was greater than 100 µM and the TGI (LOX IMVI melanoma) was 37.9 µM. It also gave a TGI (MDA-MB-231 breast) greater than 100 µM, a TGI (OVCAR-3 ovarian) greater than 100 µM and a TGI (OVCAR-8 ovarian) greater than 100 µM. For the same compound, the TGI (SK-MEL-28 melanoma) was greater than 100 µM, the TGI (SNB-19 CNS) was greater than 100 µM and the TGI (SW-620 colon) was greater than 100 µM. The TGI (U251 CNS) was greater than 100 µM and the TGI (UO-31 renal) was greater than 100 µM.
O=C(Cn1c(C(=O)/C=C/c2ccc(Cl)c(Cl)c2)nc2ccccc21)c1ccccc1 gave a TGI (BT-549 breast) of 99.3 µM, a TGI (EKVX NSCLC) of 42.8 µM and a TGI (HT29 colon) of 45.5 µM. It also gave a TGI (IGROV1 ovarian) of 79 µM, a TGI (KM12 colon) of 56.5 µM and a TGI (LOX IMVI melanoma) of 39.1 µM. The TGI (MDA-MB-231 breast) was 70.5 µM, the TGI (OVCAR-3 ovarian) was 31.9 µM and the TGI (RPMI-8226 leukemia) was greater than 100 µM. For the same compound, the TGI (SK-MEL-28 melanoma) was greater than 100 µM, the TGI (SNB-19 CNS) was 86.1 µM and the TGI (SW-620 colon) was greater than 100 µM. It also gave a TGI (U251 CNS) greater than 100 µM and a TGI (UO-31 renal) of 56 µM.
Compound CCOC(=O)CCC(NC(=O)OCc1ccccc1)C(=O)NC(CCC(=O)OCC)C(=O)NC(CCC(=O)OCC)C(=O)NC(CCC(=O)OCC)C(=O)NC(CCC(=O)OCC)C(=O)NC(Cc1ccc([N+](=O)[O-])cc1)C(=O)NC(CCC(=O)OCC)C(=O)NC(CCC(=O)OCC)C(=O)NC(CCC(=O)OCC)C(=O)NC(CCC(=O)OCC)C(=O)NC(CCC(=O)OCC)C(=O)OCC (stereo unspecified) (Cbz-E(OEt)E(OEt)E(OEt)E(OEt)E(OEt)[Phe(4-NO2)]E(OEt)E(OEt)E(OEt)E(OEt)E(OEt)-OEt; configuration not given here) has a TGI (BT-549 breast) greater than 50 µM, a TGI (EKVX NSCLC) greater than 50 µM and a TGI (HT29 colon) greater than 50 µM. For the same compound, the TGI (IGROV1 ovarian) was greater than 50 µM, the TGI (KM12 colon) was greater than 50 µM and the TGI (LOX IMVI melanoma) was greater than 50 µM. It also gave a TGI (MDA-MB-231 breast) greater than 5 µM, a TGI (OVCAR-3 ovarian) greater than 50 µM and a TGI (RPMI-8226 leukemia) greater than 50 µM. The TGI (SK-MEL-28 melanoma) was greater than 50 µM, the TGI (SNB-19 CNS) was greater than 50 µM and the TGI (SW-620 colon) was greater than 50 µM. The TGI (U251 CNS) was greater than 50 µM and the TGI (UO-31 renal) was greater than 50 µM.
Work on C[C@]12CC/C(=N\OCCN3CCCC3)C=C1CCC1C2CC[C@@]2(C)C1CC[C@]2(C)O (stereo partly specified) yielded a TGI (BT-549 breast) of 28.2 µM, a TGI (EKVX NSCLC) of 34 µM and a TGI (HT29 colon) of 5.69 µM. It also gave a TGI (IGROV1 ovarian) of 35.9 µM, a TGI (KM12 colon) of 19.1 µM and a TGI (LOX IMVI melanoma) of 15.1 µM. It also gave a TGI (MDA-MB-231 breast) of 34 µM, a TGI (OVCAR-3 ovarian) of 24.1 µM and a TGI (OVCAR-8 ovarian) of 31.6 µM. The TGI (RPMI-8226 leukemia) was 14 µM, the TGI (SNB-19 CNS) was 49 µM and the TGI (U251 CNS) was 20.2 µM. The TGI (UO-31 renal) was 24.4 µM.
CSCCCNC(=O)c1csc(-c2csc(CCNC(=O)CNC(=O)OC(C)(C)C)n2)n1 showed a TGI (BT-549 breast) greater than 100 µM, a TGI (EKVX NSCLC) greater than 100 µM and a TGI (HT29 colon) greater than 100 µM. For the same compound, the TGI (IGROV1 ovarian) was greater than 100 µM, the TGI (KM12 colon) was greater than 100 µM and the TGI (LOX IMVI melanoma) was greater than 100 µM. The TGI (MDA-MB-231 breast) was greater than 100 µM, the TGI (OVCAR-3 ovarian) was greater than 100 µM and the TGI (OVCAR-8 ovarian) was greater than 100 µM. For the same compound, the TGI (SK-MEL-28 melanoma) was greater than 100 µM, the TGI (SNB-19 CNS) was greater than 100 µM and the TGI (SW-620 colon) was greater than 100 µM. The TGI (U251 CNS) was greater than 100 µM and the TGI (UO-31 renal) was greater than 100 µM.
With CCOc1ccc(NC(=O)/C=C/c2ccco2)cc1 the TGI (BT-549 breast) was greater than 100 µM, the TGI (EKVX NSCLC) was greater than 100 µM and the TGI (HT29 colon) was greater than 100 µM. The TGI (IGROV1 ovarian) was greater than 100 µM, the TGI (KM12 colon) was greater than 100 µM and the TGI (LOX IMVI melanoma) was greater than 100 µM. For the same compound, the TGI (MDA-MB-231 breast) was greater than 100 µM, the TGI (OVCAR-8 ovarian) was greater than 100 µM and the TGI (RPMI-8226 leukemia) was greater than 100 µM. It also gave a TGI (SK-MEL-28 melanoma) greater than 100 µM, a TGI (SNB-19 CNS) greater than 100 µM and a TGI (SW-620 colon) greater than 100 µM. For the same compound, the TGI (U251 CNS) was greater than 100 µM and the TGI (UO-31 renal) was greater than 100 µM.
CC1=NN(c2ccccc2Cl)C2(C1)C(Cl)C(=O)N2c1nc2ccccc2s1 (stereo unspecified) gave a TGI (BT-549 breast) greater than 100 µM, a TGI (EKVX NSCLC) greater than 100 µM and a TGI (HT29 colon) greater than 100 µM. It also gave a TGI (IGROV1 ovarian) greater than 100 µM, a TGI (KM12 colon) greater than 100 µM and a TGI (LOX IMVI melanoma) of 33.7 µM. The TGI (MDA-MB-231 breast) was greater than 100 µM, the TGI (OVCAR-3 ovarian) was 53.1 µM and the TGI (OVCAR-8 ovarian) was greater than 100 µM. The TGI (RPMI-8226 leukemia) was 58.6 µM, the TGI (SNB-19 CNS) was greater than 100 µM and the TGI (SW-620 colon) was greater than 100 µM. The TGI (U251 CNS) was 76.5 µM and the TGI (UO-31 renal) was greater than 100 µM.
In the case of CC(C)(C)c1cc(C(C)(C)C)c(SSc2c(C(C)(C)C)cc(C(C)(C)C)c(O)c2O)c(O)c1O, the TGI (BT-549 breast) is reported as 28.3 µM, the TGI (EKVX NSCLC) is reported as 35.7 µM and the TGI (HT29 colon) is reported as 31.5 µM. For the same compound, the TGI (IGROV1 ovarian) was 26.3 µM, the TGI (KM12 colon) was 25.4 µM and the TGI (LOX IMVI melanoma) was 23.6 µM. The TGI (MDA-MB-231 breast) was 28 µM, the TGI (OVCAR-8 ovarian) was 47.7 µM and the TGI (RPMI-8226 leukemia) was 32.1 µM. The TGI (SK-MEL-28 melanoma) was 33.8 µM, the TGI (SNB-19 CNS) was 25.5 µM and the TGI (SW-620 colon) was 24 µM. For the same compound, the TGI (U251 CNS) was 22.2 µM and the TGI (UO-31 renal) was 18.6 µM.
